Assay results published in ChEMBL document CHEMBL6120946, “From Hit to Lead: Discovery of First-In-Class Furanone Glycoside D228 Derived from Chimonanthus salicifolius for the Treatment of Inflammatory Bowel Disease” (J Med Chem, 2024).
pIC50: −log10 of the molar value. Calls of active or inactive are those of the source. The calls are words filed in the database; no cut-off is given here.

What was measured:
[1] = system: Mus musculus; experiment: Antiinflammatory activity in DSS-induced male C57BL/6 mouse model of inflammatory bowel disease assessed as increase in colon length at 7.5 mg/kg/day, po via gavage measured upto 14 days relative to control; assay type: functional; details: time <= 14 day
[2] = Cytotoxicity against mouse Splenocyte by MTT assay; assay type: toxicity, cell-based; details: splenocytes
[3] = system: Mus musculus; experiment: Antiinflammatory activity in DSS-induced male C57BL/6 mouse model of inflammatory bowel disease assessed as increase in colon length at 15 mg/kg/day, po via gavage measured upto 14 days relative to control; assay type: functional; details: time <= 14 day
[4] = system: Mus musculus; experiment: Antiinflammatory activity in DSS-induced male C57BL/6 mouse model of inflammatory bowel disease assessed as reduction in weight loss at 7.5 to 15 mg/kg/day, po via gavage measured upto 14 days; assay type: functional, organism-based; details: dose 7.5-15 mg/kg/day, time <= 14.0 day
[5] = system: Mus musculus; experiment: Antiinflammatory activity in DSS-induced male C57BL/6 mouse model of inflammatory bowel disease assessed as reduction in diarrhea at 7.5 to 15 mg/kg/day, po via gavage measured upto 14 days; assay type: functional, organism-based; details: dose 7.5-15 mg/kg/day, time <= 14.0 day
[6] = system: Mus musculus; experiment: Antiinflammatory activity in DSS-induced male C57BL/6 mouse model of inflammatory bowel disease assessed as reduction of bloody stool at 7.5 to 15 mg/kg/day, po via gavage measured upto 14 days; assay type: functional, organism-based; details: dose 7.5-15 mg/kg/day, time <= 14.0 day
[7] = system: B-cell line; experiment: Immunosuppressive activity in mouse B-lymphocyte assessed as reduction in LPS-induced cell proliferation incubated for 48 hrs; assay type: functional, cell-based
[8] = Immunosuppressive activity in mouse T-lymphocyte assessed as reduction in concanavalin A-induced cell proliferation incubated for 48 hrs; assay type: functional, cell-based
[9] = system: Mus musculus; experiment: Antiinflammatory activity in DSS-induced male C57BL/6 mouse model of inflammatory bowel disease assessed as recovery in colon length at 40 mg/kg/day, po measured after 7 days relative to control; assay type: functional; details: time 7 day
[10] = system: Mus musculus; experiment: Antiinflammatory activity in DSS-induced male C57BL/6 mouse model of inflammatory bowel disease assessed as recovery from body weight loss at 40 mg/kg/day, po measured after 7 days relative to control; assay type: functional; details: time 7 day
[11] = system: Mus musculus; experiment: Antiinflammatory activity in DSS-induced male C57BL/6 mouse model of inflammatory bowel disease assessed as recovery from body weight loss at 40 mg/kg/day, po measured after 7 days; assay type: functional, organism-based; details: time 7.0 day
[12] = Selectivity ratio of CC50 for cytotoxicity against mouse Splenocyte to IC50 for immunosuppressive activity in mouse B-lymphocyte; assay type: toxicity; details: splenocytes (CC50) and B-lymphocytes (IC50)
[13] = Selectivity ratio of CC50 for cytotoxicity against mouse Splenocyte to IC50 for immunosuppressive activity in mouse T-lymphocyte; assay type: toxicity; details: splenocytes (CC50) and T-lymphocytes (IC50)
[14] = system: Mus musculus; experiment: Antiinflammatory activity in DSS-induced male C57BL/6 mouse model of inflammatory bowel disease assessed as increase in colon length at 250 mg/kg/day, po via gavage measured upto 14 days relative to control; assay type: functional; details: time <= 14 day
[15] = system: Mus musculus; experiment: Antiinflammatory activity in male C57BL/6 mouse model of inflammatory bowel disease assessed as recovery of DSS-induced body weight loss at 40 mg/kg/day, po via gavage measured after 14 days relative to control; assay type: functional; details: time 14 day
[16] = system: Mus musculus; experiment: Antiinflammatory activity in DSS-induced male C57BL/6 mouse model of inflammatory bowel disease assessed as restoration of colon length at 40 mg/kg/day, po via gavage measured after 14 days relative to control; assay type: functional; details: time 14 day

| Compound | Activity [1] [%] | CC50 [2] [µM] | Activity [3] [%] | Activity [4] | Activity [5] | Activity [6] | pIC50 [7] | pIC50 [8] | Activity [9] [%] | Activity [10] [%] | Activity [11] | selectivity ratio [12] | selectivity ratio [13] | Activity [14] [%] | Activity [15] [%] | Activity [16] [%] |
| --- | --- | --- | --- | --- | --- | --- | --- | --- | --- | --- | --- | --- | --- | --- | --- | --- |
| CC1=C(O)C(=O)C(=C2CCCC2)O1 | 99.2 | 248 | 98.4 | Active | Active | Active | < 4.00 | < 4.00 |  |  |  |  |  |  |  |  |
| C/C=C/C[C@@H](C)[C@@H](O)[C@H]1C(=O)N[C@@H](CC)C(=O)N(C)CC(=O)N(C)[C@@H](CC(C)C)C(=O)N[C@@H](C(C)C)C(=O)N(C)[C@@H](CC(C)C)C(=O)N[C@@H](C)C(=O)N[C@H](C)C(=O)N(C)[C@@H](CC(C)C)C(=O)N(C)[C@@H](CC(C)C)C(=O)N(C)[C@@H](C(C)C)C(=O)N1C [CYCLOSPORINE] |  |  |  |  |  |  | 6.34 |  |  |  |  |  |  |  |  |  |
| CC(=O)OC[C@H]1O[C@@H](OC2=C(C)OC(=C3CCCC3)C2=O)[C@H](OC(C)=O)[C@@H](OC(C)=O)[C@@H]1OC(C)=O |  | 40 |  |  |  |  | 4.79 | 4.63 | 45.2 | 62.5 | Active | 2.73 | 1.83 |  |  |  |
| CC1=C(O)C(=O)C(=C2CCNCC2)O1 |  | 205 |  |  |  |  | < 4.00 | < 4.00 |  |  |  |  |  |  |  |  |
| CC(=O)OC[C@H]1O[C@@H](OC2=C(C)OC(=C3CCNCC3)C2=O)[C@H](OC(C)=O)[C@@H](OC(C)=O)[C@@H]1OC(C)=O |  | 15.5 |  |  |  |  | 4.39 | 4.54 | 52.9 | 28 | Active | 0.37 | 0.8 |  |  |  |
| O=C(O)c1cc(/N=N/c2ccc(S(=O)(=O)Nc3ccccn3)cc2)ccc1O [SULFASALAZINE] |  |  |  |  |  |  |  |  |  |  |  |  |  | 86.7 | 24 | 9.5 |
| CC(=O)OC[C@H]1O[C@@H](OC2=C(C)OC(=C3CCOCC3)C2=O)[C@H](OC(C)=O)[C@@H](OC(C)=O)[C@@H]1OC(C)=O |  | 71.9 |  |  |  |  | 4.58 | 4.36 | 30.5 | 26.3 | Active | 3.11 | 1.87 |  |  |  |
| CC(=O)OC[C@H]1O[C@@H](OC2=C(C)OC(=C3CCN(C(C)=O)CC3)C2=O)[C@H](OC(C)=O)[C@@H](OC(C)=O)[C@@H]1OC(C)=O |  | 38.7 |  |  |  |  | 4.60 | 4.32 | 26.7 | 13.9 | Active | 1.74 | 1.23 |  |  |  |
